Assay results taken from patent US20110166066A1, “CATESTATIN (CST) AND ITS VARIANTS FOR TREATMENT OF CARDIOVASCULAR AND METABOLIC DISORDERS” (priority 2008, published 2011).
No end group written: not given here.

Legend:
pAMPK = assay: AMPK signalling by immunoblotting of mouse tissues; type: in vivo; settings: CgA-KO mice
Excerpt: Adult WT (C57BL/6) and CgA-KO mice with mixed genetic background (129svJ×C57BL/6) were used in this study. Both WT and KO mice were generated from the original founder carrying mixed genotype (50% 129svJ: 50% C57BL/6) and were maintained by brother/sister mating. Hypertensive CGA-KO mice will serve as a model for hyper insulin sensitivity. WT mice were fed 60% high fat diet (HFD) for 20 weeks. Body weight and blood glucose levels were monitored and glucose and insulin tolerance testa were performed to determine status of insulin resistance. After 20 weeks of HFD feeding mice were injected IP with catestatin (40 μg/gm body weight) twice daily for 7 days. On the 8th day, 12 hours fasted mice were subjected to glucose tolerance tests to determine their insulin sensitivity. Tissues of WT and CgA-KO mice are analyzed AMPK and eNOS signalling by immunoblotting.

ECs = assay: In-vitro angiogenic effects on ECs (migration, proliferation, matrigel assay); type: cell-based
[1] = system: PLN (phospholamban) Ser16; assay: Immunoblot of phosphorylated PLN in WT-CST perfused hearts; parameters: species or system rat; settings: 110 nM
Procedure: Cardiac signaling—Hearts were perfused with or without 110 nM WT-Cts as before. At the end of experiment hearts were snap frozen under liquid nitrogen and homogenized with 1 ml of ice cold 0.2 M sucrose, Tris maleate (pH 7.0) buffer supplemented with 2 mM EDTA, pH 8.0, 1 mM sodium orthovanadate, 10 mM sodium pyrophosphate, 1 mM phenylmethylsulfonyl fluoride, 10 μg/ml leupeptin, 10 μg/ml aprotinin and 0.1 mM 3-isobutyl-1-methylxanthine. SR membrane fractions were isolated from cytosolic proteins as described before (27). Protein content was determined by Bradford assay (BIO-RAD) and 100 μg of cytosolic protein was subjected to SDS-PAGE immunoblot analysis for phosphorylated-ERK, total ERK (P-ERK and T-ERK; Santa Cruz, Calif.). […]
Statistics—Data are expressed as the mean±SEM. Curve fitting was accomplished in the program Kaleidagraph (Synergy Software, Reading, Pa.). […] For analysis of phosphorylated proteins, levels were quantified using Bio-Rad QuantifyOne and volumes of phosphorylated proteins were divided by the levels of non-phosphorylated proteins to calculate fold activation. Stimulation of protein activity was expressed as fold increase over vehicle-treated control. The means and S.E.M. were calculated for each treatment. […]

[2] = system: Wild-type and CgA-KO mice; assay: Heart rate variability (EKG) in sedated mice; type: in vivo
Procedure: Animals. Six Wild-type and seven CgA-KO mice were used in this study (see example 1 for the details).
Mice were sedated by an intraperitoneal injection of a 1 μl solution per gm body weight, containing Ketamine (100 mg/ml)+Xylazine (20 mg/ml) and Acepromazine (10 mg/ml). Mice were gently strapped onto the surgical table in a fixed supine position with silk tape. Body temperature was continuously monitored on an analog thermometer, model 44TA (YSI, Ohio) using a rectal probe, and maintained between 36.5 and 38.5° C. throughout the experiment using a controlled heating box. The analog output signal fed into the chart recorder (AD Instruments, Colorado) and suitably amplified. The adequacy of sedation was regularly verified by absence of vibrissae twitching and withdrawal reflex to a noxious toe-pinch and was supplemented intraperitoneally as needed. Animals breathed ambient air spontaneously throughout the experimental run. Investigational agent, a nicotinic cholinergic receptor antagonist (8), CST was dissolved in distilled water and injected intraperitoneally at a volume of 70 μl from a 1 mM working solution.
EKG electrodes were attached to all four limbs (incl. reference electrode) via 30G stainless steel hypodermic needles (Popper & Sons, New York) so as to record standard bipolar Einthoven derivation (lead I, II and III) EKG signals. The EKG signals were bandpass-filtered between 0.1 and 3 kHz with a notch filter set at 60 Hz, and sampled at 2 kHz. The voltage output fed into a data acquisition system (PowerLab-8, AD Instruments) for eventual off-line measurements and analysis by chart and scope (Labchart 6) software. Heart rate and rhythm were also monitored continuously on an oscilloscope (Tektronix 5113, Oregon) throughout the experiment.
EKG traces were edited using the Chart® software package. High frequency noise from the EKG was removed using a 45 Hz low-pass filter to enable detection of the R-waves, whenever appropriate. A threshold electrical potential value was set for each trace and the post-threshold maximum was taken as the R-wave. Each trace was visually inspected for any undetected R-waves and these were manually inserted, while incorrectly detected R-waves or non-normal beats such as extrasystoles were deleted. Time and frequency domain analysis of HRV was performed using fast Fourier-transformation with a Hanning window. Spectral power was calculated on 50% overlapped blocks on sequences of 1024 points (beats). Time-domain parameters recorded or calculated included: mean R-R interval (in ms) [i.e., NN interval, i.e., normal-to-normal intervals]; standard deviation of all normal R-R interval (SDNN, in ms), reflecting total autonomic variability; square root mean of squared differences between adjacent normal R-R intervals (RMSSD), an index for short-term variations in inter-beat intervals, primarily of parasympathetic nature; and percentage of normal consecutive inter-beat intervals differing by >7 ms (NN7%), reflecting cardiac parasympathetic tone, were calculated directly from the sequence of interval times. NN7 is a murine-adjusted value based on PNN50 determined for humans (32). The mean HR was calculated as the mean sequence of reciprocals of the interval times. For non-linear measurements on the return map of R-R intervals (Lorenz plot), the images acquired by the chart software were imported into Image J (National Institutes of Health, Bethesda) for evaluating point dispersion of S1 and S2 (see below). The width and length of the dispersion of data in Lorenz plots reflects the level of short- and long-term beat-to-beat variability, respectively. The different frequency domain measures of HRV were computed using cut-off frequencies for power in the very low frequency (VLF), low-frequency range (LF) and high-frequency range (HF) based on human studies multiplied by a factor of ten for HR adjustment (the approximate ratio between murine and human HR) (33). […]

Sequence: SSMKLSFRARAYGFRGPGPQL [WT-CST, catestatin]
- pAMPK signal (pAMPK): reduced
- Concentration of maximal function (ECs): 1 nM
- Direct effects on ECs (ECs): exerts several direct effects on ECs including EC migration and proliferation
- MAPK signaling pathway in ECs (ECs): induced activation of MAPK signaling pathway
- Angiogenic effects at higher concentration (ECs; 100 nM, EC migration, proliferation, in-vitro matrigel assay): angiogenic effects were still observed
- Phosphorylation of PLN at Ser16 [1]: inhibited
- Increased baseline heart rate ([2]; CgA KO mice, parenteral CST): rescued
- HRV VLF power ([2]; KO mice): 2.899±1.05 ln ms^2
- Time-domain parameters of HRV (SDNN, NN7%, RMSSD) ([2]; KO mice): reversed
- HRV VLF power ([2]; WT mice): 2.468±0.69 ln ms^2
- Short-term and long-term variability of HRV (Lorenz analysis) ([2]; mouse, in vivo): marked improvements
- Spectral peak positions ([2]; mouse, in vivo): not visibly altered
